Data on one molecule can be found in patent US12390467B2, “Necroptosis inducers or autophagy inhibitors or a combination thereof” (The University of Toledo, priority 2018, dated 2025).

Structures are written as SMILES.

Holding throughout (type): cell-based
One assay relates to β-catenin in MDA-MB468. The assay can be described thus: Western blot, β-catenin, MDA-MB468. As to the method: The TNBC cells were seeded in a culture flask and incubated for 24 h. The cells were then incubated with different concentrations of the lead compounds and re-incubated for an additional 12 or 24 h. […] The bicinchoninic acid (BCA) was used to determine protein concentration in the cell extracts (G-BIOSCIENCES, St. Louis, MO, USA). […] The membrane was blocked using 5% milk in Tris-buffered Tween 20 saline for 30 minutes. […] A ChemiDoc™ MP System imaging system from Bio-Rad (Hercules, CA, USA) was used for blots reading. Blots were used to obtain the protein bands, followed by quantification of the bands using image J software (NIH, Bethesda, MD, USA). All of the data were expressed as the ratio of β-actin or GAPDH.

Assay [1] has as its system normal human mammary epithelial cells (HMEC). Put plainly: MTT cell viability assay, HMEC. The protocol: The following cancer and non-cancer cell lines were used in the initial cytotoxicity screening of the TPH104 compounds: triple negative breast cancer (TNBC): MDA-MB468, MDA-MB 231, and BT-20; non-TNBC: MCF-7 and ZR-75-1; ovarian: Ov2008; prostate: DU145; colon: HCT-116, S1, and LOVO; lung: H460; normal kidney: HEK-293; normal breast: HMEC; and normal colon: CRL-1459. All cells were cultured in Dulbecco's modified Eagle medium (DMEM), supplemented with 10% fetal bovine serum (FBS), and 1% penicillin/streptomycin (P/S). Cells were allowed to grow as adherent monolayers in T25 flasks in a humidified incubator with 5% CO2 at 37° C. for a period of 24 h, unless otherwise specified for certain experiments.
The MTT assay was used to determine the cytotoxicity of all of the compounds. Briefly, in a 96-well flat-bottom cell culture plate, the cells were seeded at a density between 3-5×10^3 cells/well (180 μl in each well) and incubated for 24 h (a hemocytometer was used for cell counting). The next day, the cells were incubated with different concentrations of the nine compounds (0, 0.1, 0.3, 1, 3, 10, 30, and 100 μM) for 72 h. After 72 h, 20 μl of 5 mg/ml of 3-(4,5-dimethylthiazol-2-yl)-2,5-diphenyltetrazolium bromide (MTT) was added to the plate and incubated with the cells for 3 h at 37° C. In this experiment, the living cells will reduce the soluble MTT dye to non-soluble purple formazan crystals. Following incubation, the media containing MTT removed via suction and 100 μL of 100% dimethyl sulfoxide (DMSO) was added to dissolve the formazan crystals. Subsequently, the plate was shaken for 2 minutes and the absorbance was measured at a wavelength of 570 nm using a SpectraMax iD3 Multi-Mode Microplate Reader (Molecular Devices, Sunnyvale, CA). The IC50 values of each compound were calculated and used to determine the selectivity ratio (IC50 in normal cells/IC50 in cancer cells) of each compound as previously described. Based on the results obtained from these experiments, the compound TPH104, which had the lowest IC50 value, was selected for further experiments.

The subject of assay [2] is LC3B-I, LC3B-II, LAMP1, Beclin-1, mTOR, ULK1, Rab7, Rab5 in BT-20 TNBC cells. Put plainly: Western blot, autophagy markers. The protocol: The TNBC cells were seeded in a culture flask and incubated for 24 h. The cells were then incubated with different concentrations of the lead compounds and re-incubated for an additional 12 or 24 h. […] The bicinchoninic acid (BCA) was used to determine protein concentration in the cell extracts (G-BIOSCIENCES, St. Louis, MO, USA). […] The membrane was blocked using 5% milk in Tris-buffered Tween 20 saline for 30 minutes. The membrane was then incubated overnight with primary antibodies against Bak, Bax, Bcl-2, caspase9, caspase 3, caspase 7, PARP, cytochrome c, N-cadherin, E-cadherin, c-Myc, dishevelled segment polarity protein 3 (DVL3), dishevelled segment polarity protein 2 (DVL2), Vimentin, mitogen-activated protein kinase kinase (MAPKK also known as MEK1/2), β-catenin, low-density lipoprotein receptor-related protein 6 (LRP6), receptor-interacting protein kinase (RIP), phosphorylated RIP (p-RIP), mixed lineage kinase domain like pseudokinase(MLKL), Caspase 8, light chain 3 (LC3), lysosomal-associated membrane protein 1 (LAMP1), unc-51 like autophagy activating kinase 1 (ULK1), ras associated protein 7 (Rab7), ras associated protein 5 (Rab5), Beclin 1, mechanistic target of rapamycin (mTOR), tumor necrosis factor alpha (TNF-α), tumor necrosis factor receptor 1 (TNFR1), tumor necrosis factor receptor 2 (TNFR2), Fas-associated protein with death domain (FADD), Fas ligand (Fas), TNF-related apoptosis-inducing ligand (TRAIL), death receptor 5 (DR5), Tumor necrosis factor receptor type 1-associated DEATH domain (TRADD), receptor-interacting protein kinase 3 (RIP3), β-actin or GAPDH in 1:1000 dilution in 5% milk or 5% BSA at 4° C. Horseradish peroxidase-labeled (HRP) anti-rabbit or anti-mouse secondary antibodies (1:5,000 dilution) were added and incubated the next day for an additional 1 h. A ChemiDoc™ MP System imaging system from Bio-Rad (Hercules, CA, USA) was used for blots reading. Blots were used to obtain the protein bands, followed by quantification of the bands using image J software (NIH, Bethesda, MD, USA). All of the data were expressed as the ratio of β-actin or GAPDH.

A further assay deals with MDA-MB468 cells. The assay can be described thus: Nuclear condensation and morphology, MDA-MB468. The protocol: To detect DNA fragmentation following apoptotic cell death, the Hoechst 33258 assay was performed. Briefly, TNBC cells were seeded in a 6-well plate at a density of 10,000 cells/well over 18-mm cover slips and incubated for 24 h. Following incubation, TPH104 (1, 2, or 5 μM), or vehicle were added for an additional 12 h. Subsequently, Hoechst 33258 (Sigma Aldrich, USA) was added to the cells at a concentration of 0.5 mg/mL and incubated for 30 minutes at 37° C. The cells were then washed 3× with phosphate buffered saline (PBS). Subsequently, the cover slips were mounted on a microscope glass/slide and allowed to dry for at least 2 h. Stained cells from each cover slip were captured from randomly selected fields under a fluorescent microscope (EVOS-FLC cell imaging system, Thermofisher scientific) to qualitatively determine the proportion of viable and apoptotic cells based on their relative fluorescence and nuclear fragmentation as previously described.

The next assay deals with MDA-MB231 cells. The assay can be described thus: Scratch/wound healing assay. As to the method:
MDA-MB231 cells were seeded in a 6 well-plate (10-20,000 cells/well) and incubated at 37° C. until they reached 60-80% confluence and formed a complete monolayer, as previously reported. Subsequently, a wound was created by scratching the monolayer with a 10 μl sterile pipette tip. The floating cells were washed away with sterile PBS, making the wound area clear and completely empty. Immediately following monolayer scratching, TPH104 (0.5, 1, 2, 5 or 10 μM) or vehicle were added to the cell culture media (2 ml total in each well) and incubated at 37° C. for 36 h. The wound closure was monitored over time by taking pictures after 0 h, 12 h, 24 h, and 36 h of incubation using an EVOS-FLC microscope. Image J software NIH, Bethesda, MD, USA) was used to determine the areas of the wound at different time points as previously reported.

For the molecule `COc1ccc(O)c(/C=N/Nc2ncnc3scc(-c4ccc(C)cc4)c23)c1` [TPH104], the “expression of β-catenin” value with β-catenin in MDA-MB468 is reported as “significantly decreased”. The “selectivity fold on TNBC cells compared to normal human mammary epithelial cells” value in assay [1] is given as “more than 100 fold”. For the same molecule, in assay [1] (HMEC vs TNBC cells), the “IC50 for HMEC, fold higher than the IC50 values for TNBC cells” value was 330-411 fold. In assay [1] (Homo sapiens, HMEC, MTT, 72 h, Normal, read-out: IC50 ± SD, HMEC), the IC50 amounted to 82.3 µM. Besides, the “expression levels of ULK1, Rab5, and Rab7” value in assay [2] (0.5, 1, 2, or 5 μM) is given as “significantly reduced”. Further, in assay [2] (0.5, 1, 2, or 5, 12 h), the LC3B-I levels entry is reported as “significantly increased” and the LC3B-II entry is recorded as “no significant increase”. The “expression of Beclin 1” value in assay [2] (1, 2, and 5 μM for 12 h) is listed as “significantly decreased”. Also, the “expression of mTOR” value in assay [2] (1, 2, or 5 μM for 12 h) is “significantly increased”. Also, the “expression levels of LAMP1” value in assay [2] (12 h) is recorded as “no significant change”. The “nuclear condensation or cellular shrinkage” value in the assay with MDA-MB468 cells was “did not produce”. The molecule further gave a death of cells with MDA-MB231 cells (10 μM, after 12 h of incubation) of 70%. Besides, in the assay with MDA-MB231 cells (0.5, 1, 2, 5, and 10 μM), the mobility and migration result is listed as “significantly decreased”. In addition, in the assay on MDA-MB231 cells (1, 2, 5, and 10 μM), the wound closure result is recorded as “significantly reduced”.
